The text below walks through data of article PMC11233931, “Remodeling tumor‐associated macrophage for anti‐cancer effects by rational design of irreversible inhibition of mitogen‐activated protein kinase‐activated protein kinase 2” (MedComm, 2024).

For orientation: inhibition means the relative decrease from the control value, in per cent.

Assay in all cases: Eurofins kinase selectivity profile against 380 other human recombinant kinases (Table S2)
Common to all, as to type: biochemical

The target in experiment [1] is T1, 380 human recombinant protein kinases (Homo sapiens, UniProt P25098).
T1 construct: purchased Eurofins (Celle Lévescault)
T1 sequence (P25098 1-689): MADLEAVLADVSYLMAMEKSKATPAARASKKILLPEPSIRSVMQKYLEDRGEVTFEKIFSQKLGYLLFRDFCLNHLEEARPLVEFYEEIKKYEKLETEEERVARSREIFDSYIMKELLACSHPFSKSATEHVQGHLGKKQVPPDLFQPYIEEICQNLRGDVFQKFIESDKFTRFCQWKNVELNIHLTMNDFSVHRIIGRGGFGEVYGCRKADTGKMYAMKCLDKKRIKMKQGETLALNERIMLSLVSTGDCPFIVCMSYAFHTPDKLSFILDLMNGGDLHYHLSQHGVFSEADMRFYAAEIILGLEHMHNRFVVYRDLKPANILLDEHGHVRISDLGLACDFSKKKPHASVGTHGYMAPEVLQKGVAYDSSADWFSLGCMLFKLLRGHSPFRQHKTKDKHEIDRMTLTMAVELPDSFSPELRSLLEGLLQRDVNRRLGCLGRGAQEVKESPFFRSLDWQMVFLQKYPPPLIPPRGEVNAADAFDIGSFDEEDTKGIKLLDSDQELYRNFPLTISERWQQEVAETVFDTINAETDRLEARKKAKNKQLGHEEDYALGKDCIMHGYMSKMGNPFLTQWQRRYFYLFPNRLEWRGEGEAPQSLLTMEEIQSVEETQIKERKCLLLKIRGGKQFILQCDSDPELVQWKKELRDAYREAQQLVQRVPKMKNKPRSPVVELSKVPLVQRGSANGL
The conditions noted are these: GRK2(h), read-out: Inhibition rate. How it is done: (§1) Subsequently, to ascertain whether the high potency of compound 11 was specific for MK2, an additional 380 human recombinant protein kinases were screened.
(§2) To assess the impact of various compounds on MK2 kinase activity, we utilized the ADP‐Glo Assay Kit (Promega) following the manufacturer's instructions. Luminescence measurements were taken using a SpectraMax Paradigm reader. The inhibition percentage was calculated using the following formula: ((specific signalDMSO control − specific signal inhibitor)/(specific signalDMSO control)) × 100%. The IC50 values were determined employing dose–response curve fitting via Prism (Graph Pad). Additionally, Eurofins company (Celle Lévescault) conducted the analysis on compound 11’s inhibitory activity against 380 other human recombinant kinases at various concentrations.

Experiment [2] addresses T2, 380 human recombinant protein kinases (Homo sapiens, UniProt P46734).
T2 construct: purchased Eurofins (Celle Lévescault)
T2 sequence (P46734 1-347): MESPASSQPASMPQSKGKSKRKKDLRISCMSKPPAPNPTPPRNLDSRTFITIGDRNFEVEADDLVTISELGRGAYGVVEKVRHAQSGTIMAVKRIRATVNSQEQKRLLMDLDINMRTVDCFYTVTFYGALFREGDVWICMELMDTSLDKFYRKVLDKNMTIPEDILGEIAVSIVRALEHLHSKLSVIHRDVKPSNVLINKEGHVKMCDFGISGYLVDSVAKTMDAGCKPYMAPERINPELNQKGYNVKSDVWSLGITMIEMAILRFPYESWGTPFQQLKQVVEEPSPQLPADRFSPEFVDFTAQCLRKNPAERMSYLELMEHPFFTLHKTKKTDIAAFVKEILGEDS
The conditions noted are these: MKK3(h), read-out: Inhibition rate. How it is done: as §1, §2

For experiment [3], the target named is T3, 380 human recombinant protein kinases (Homo sapiens, UniProt Q6P2M8).
T3 construct: purchased Eurofins (Celle Lévescault)
T3 sequence (Q6P2M8 whole entry): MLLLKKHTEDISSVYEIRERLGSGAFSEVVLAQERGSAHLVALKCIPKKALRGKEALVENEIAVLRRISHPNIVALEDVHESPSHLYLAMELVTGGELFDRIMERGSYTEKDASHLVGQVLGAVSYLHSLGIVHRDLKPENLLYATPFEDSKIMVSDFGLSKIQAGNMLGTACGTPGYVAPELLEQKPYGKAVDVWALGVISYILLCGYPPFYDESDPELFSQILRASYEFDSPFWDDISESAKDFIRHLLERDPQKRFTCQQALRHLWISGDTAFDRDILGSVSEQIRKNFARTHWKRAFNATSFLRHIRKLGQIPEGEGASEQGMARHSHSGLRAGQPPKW
The conditions noted are these: CaMKIß(h), read-out: Inhibition rate. How it is done:
as §1, §2

For experiment [4], the target named is T4, 380 human recombinant protein kinases (Homo sapiens, UniProt P48426).
T4 construct: purchased Eurofins (Celle Lévescault)
T4 sequence (P48426 1-406): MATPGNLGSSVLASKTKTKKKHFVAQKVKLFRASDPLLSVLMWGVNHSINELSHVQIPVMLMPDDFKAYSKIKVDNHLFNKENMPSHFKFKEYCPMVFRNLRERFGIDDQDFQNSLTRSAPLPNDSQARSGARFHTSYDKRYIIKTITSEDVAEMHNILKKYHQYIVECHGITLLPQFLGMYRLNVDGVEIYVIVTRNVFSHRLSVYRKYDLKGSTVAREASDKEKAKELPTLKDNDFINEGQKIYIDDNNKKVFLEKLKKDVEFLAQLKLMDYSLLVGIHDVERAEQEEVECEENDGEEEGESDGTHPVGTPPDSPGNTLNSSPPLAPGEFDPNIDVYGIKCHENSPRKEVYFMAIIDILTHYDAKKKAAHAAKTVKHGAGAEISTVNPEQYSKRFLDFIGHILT
The conditions noted are these: PIP4K2α(h), read-out: Inhibition rate (%). How it is done:
as §1, §2

In experiment [5] the target is T5, 380 human recombinant protein kinases (Homo sapiens, UniProt P78527).
T5 construct: purchased Eurofins (Celle Lévescault)
T5 sequence (P78527 whole entry): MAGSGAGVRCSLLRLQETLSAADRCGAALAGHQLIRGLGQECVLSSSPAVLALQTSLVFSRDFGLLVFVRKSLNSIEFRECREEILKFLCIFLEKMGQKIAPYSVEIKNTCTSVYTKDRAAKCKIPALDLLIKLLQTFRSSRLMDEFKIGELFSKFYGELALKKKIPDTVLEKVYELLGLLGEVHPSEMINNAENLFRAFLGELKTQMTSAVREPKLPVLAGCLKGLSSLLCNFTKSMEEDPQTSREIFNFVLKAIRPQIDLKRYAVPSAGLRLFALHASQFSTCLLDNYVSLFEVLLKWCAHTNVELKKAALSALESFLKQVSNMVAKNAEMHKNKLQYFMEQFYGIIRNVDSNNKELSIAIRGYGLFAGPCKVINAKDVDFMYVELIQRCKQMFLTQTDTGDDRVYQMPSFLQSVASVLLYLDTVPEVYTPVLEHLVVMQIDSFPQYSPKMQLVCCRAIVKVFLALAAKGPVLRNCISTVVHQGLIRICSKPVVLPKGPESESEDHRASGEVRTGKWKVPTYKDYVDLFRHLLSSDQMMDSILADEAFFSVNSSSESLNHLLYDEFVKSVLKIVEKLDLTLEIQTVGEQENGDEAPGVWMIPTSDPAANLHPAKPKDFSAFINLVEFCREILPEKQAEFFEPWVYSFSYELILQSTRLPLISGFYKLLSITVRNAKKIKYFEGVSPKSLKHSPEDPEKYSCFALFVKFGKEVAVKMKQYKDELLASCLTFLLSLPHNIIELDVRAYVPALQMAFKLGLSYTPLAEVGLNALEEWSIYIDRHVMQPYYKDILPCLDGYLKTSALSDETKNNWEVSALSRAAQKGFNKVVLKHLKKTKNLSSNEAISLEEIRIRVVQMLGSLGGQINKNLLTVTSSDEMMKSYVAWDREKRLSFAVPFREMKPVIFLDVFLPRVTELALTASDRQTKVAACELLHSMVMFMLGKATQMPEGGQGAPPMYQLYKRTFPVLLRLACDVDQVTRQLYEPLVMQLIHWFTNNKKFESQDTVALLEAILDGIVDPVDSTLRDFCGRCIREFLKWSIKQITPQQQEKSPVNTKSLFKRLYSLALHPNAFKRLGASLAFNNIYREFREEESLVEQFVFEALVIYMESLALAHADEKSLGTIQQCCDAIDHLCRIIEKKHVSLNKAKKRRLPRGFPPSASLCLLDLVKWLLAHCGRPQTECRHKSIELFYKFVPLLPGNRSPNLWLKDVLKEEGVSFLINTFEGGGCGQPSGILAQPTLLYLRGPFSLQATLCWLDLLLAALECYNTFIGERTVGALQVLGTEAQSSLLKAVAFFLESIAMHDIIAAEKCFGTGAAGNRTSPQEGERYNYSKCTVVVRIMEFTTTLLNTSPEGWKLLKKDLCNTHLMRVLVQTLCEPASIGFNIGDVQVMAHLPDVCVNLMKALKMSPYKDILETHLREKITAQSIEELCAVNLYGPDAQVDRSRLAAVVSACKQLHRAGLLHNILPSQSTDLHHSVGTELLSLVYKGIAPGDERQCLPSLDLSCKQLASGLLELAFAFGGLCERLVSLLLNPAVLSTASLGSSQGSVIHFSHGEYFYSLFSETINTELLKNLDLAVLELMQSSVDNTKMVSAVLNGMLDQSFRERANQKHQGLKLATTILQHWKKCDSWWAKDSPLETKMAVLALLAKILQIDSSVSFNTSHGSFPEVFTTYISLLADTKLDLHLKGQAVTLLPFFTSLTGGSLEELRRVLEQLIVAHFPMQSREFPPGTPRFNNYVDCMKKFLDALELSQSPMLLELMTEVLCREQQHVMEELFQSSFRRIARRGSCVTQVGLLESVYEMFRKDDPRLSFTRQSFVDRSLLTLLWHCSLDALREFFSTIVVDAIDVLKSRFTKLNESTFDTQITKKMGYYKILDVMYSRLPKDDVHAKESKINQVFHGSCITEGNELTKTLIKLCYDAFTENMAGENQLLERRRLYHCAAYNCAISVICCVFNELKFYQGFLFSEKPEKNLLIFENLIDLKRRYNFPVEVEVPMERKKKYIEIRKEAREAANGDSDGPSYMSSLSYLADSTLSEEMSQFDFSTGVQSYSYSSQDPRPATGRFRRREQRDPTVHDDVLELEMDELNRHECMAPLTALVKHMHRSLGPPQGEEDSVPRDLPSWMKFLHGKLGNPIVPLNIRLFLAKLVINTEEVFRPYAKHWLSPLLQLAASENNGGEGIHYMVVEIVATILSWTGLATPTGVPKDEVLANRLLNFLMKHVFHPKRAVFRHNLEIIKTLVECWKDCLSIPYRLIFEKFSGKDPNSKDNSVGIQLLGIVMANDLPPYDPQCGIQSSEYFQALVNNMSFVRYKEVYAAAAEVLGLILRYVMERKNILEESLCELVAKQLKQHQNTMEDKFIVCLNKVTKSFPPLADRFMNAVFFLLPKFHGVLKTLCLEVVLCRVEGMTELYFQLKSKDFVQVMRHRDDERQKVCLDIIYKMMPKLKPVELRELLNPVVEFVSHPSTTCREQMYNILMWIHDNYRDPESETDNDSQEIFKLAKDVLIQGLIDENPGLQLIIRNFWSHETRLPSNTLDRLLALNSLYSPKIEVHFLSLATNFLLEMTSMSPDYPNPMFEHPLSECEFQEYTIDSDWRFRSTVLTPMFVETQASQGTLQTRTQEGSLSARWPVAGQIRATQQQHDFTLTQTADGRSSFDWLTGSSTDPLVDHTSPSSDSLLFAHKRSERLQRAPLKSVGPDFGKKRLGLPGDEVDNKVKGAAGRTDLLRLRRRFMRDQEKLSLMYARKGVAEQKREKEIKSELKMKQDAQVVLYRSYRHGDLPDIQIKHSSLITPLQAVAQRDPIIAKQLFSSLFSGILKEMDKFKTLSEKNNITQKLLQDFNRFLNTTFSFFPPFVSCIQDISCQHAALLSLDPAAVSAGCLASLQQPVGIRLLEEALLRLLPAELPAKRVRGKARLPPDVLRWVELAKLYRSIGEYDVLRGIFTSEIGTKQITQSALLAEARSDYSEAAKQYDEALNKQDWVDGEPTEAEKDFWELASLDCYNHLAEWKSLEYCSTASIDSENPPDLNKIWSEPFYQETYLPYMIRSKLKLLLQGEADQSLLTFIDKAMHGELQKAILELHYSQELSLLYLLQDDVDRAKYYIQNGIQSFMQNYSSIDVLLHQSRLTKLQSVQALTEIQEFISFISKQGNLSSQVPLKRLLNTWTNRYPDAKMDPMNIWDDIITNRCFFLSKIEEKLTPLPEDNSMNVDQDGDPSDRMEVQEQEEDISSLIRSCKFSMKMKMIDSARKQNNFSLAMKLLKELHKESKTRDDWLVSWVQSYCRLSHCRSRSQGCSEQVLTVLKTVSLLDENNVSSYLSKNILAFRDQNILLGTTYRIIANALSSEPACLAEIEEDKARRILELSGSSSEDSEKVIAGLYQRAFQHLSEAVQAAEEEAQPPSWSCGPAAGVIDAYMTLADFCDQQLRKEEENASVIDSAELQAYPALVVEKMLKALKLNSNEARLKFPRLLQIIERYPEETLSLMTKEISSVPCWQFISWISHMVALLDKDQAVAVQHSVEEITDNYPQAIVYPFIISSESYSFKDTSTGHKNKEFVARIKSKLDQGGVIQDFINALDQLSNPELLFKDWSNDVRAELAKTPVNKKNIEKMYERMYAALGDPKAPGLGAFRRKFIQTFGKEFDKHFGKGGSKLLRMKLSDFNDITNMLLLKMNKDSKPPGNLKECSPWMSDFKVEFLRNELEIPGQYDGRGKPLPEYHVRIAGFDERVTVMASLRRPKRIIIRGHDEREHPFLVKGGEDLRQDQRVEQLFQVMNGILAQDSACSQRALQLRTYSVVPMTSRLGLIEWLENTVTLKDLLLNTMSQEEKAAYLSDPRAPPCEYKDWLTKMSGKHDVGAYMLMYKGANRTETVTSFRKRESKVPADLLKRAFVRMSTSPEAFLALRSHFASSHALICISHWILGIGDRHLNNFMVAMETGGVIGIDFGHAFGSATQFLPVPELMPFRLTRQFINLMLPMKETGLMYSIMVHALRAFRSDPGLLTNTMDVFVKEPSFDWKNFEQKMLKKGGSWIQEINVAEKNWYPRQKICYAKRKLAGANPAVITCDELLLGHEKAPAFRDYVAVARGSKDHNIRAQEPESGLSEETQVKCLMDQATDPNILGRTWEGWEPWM
The conditions noted are these: DNA-PK(h), read-out: Inhibition rate (%). The procedure:
as §1, §2

Turning to `C=CC(=O)Nc1cc(-c2cc(-c3cc4c([nH]3)CCNC4=O)ccn2)ccc1OC(F)(F)F` [compound 11], the inhibition at 0.01 µM in experiment [1] (10 nM) is -6%; in experiment [2] (10 nM) it was 6%; in experiment [3] (10 nM), -6%; in experiment [4] (10 nM) it was -1%; in experiment [5] (10 nM), -1%. Also, the inhibition at 0.1 µM in experiment [1] (100 nM) is -9%; in experiment [2] (100 nM) it was -2%; in experiment [3] (100 nM) it was -2%; in experiment [4] (100 nM) it was -3%; in experiment [5] (100 nM) it was 2%. The inhibition at 1 µM in experiment [1] (1000 nM) was -2%; in experiment [2] (1000 nM) it was -1%; in experiment [3] (1000 nM), -2%; in experiment [4] (1000 nM) it was -1%; in experiment [5] (1000 nM), 3%.
